For one compound, IC50 results are on record in publication PMC4352019, “Bioactivity-Guided Fractionation of an Antidiarrheal Chinese Herb Rhodiola kirilowii (Regel) Maxim Reveals (-)–Epicatechin-3-Gallate and (-)–Epigallocatechin-3-Gallate as Inhibitors of Cystic Fibrosis Transmembrane Conductance Regulator” (PLoS ONE, 2015).

SMILES strings stand for the structures.

In this experiment the target is T1, Cystic fibrosis transmembrane conductance regulator (CFTR) (Homo sapiens, UniProt P13569).
T1 construct: human wild-type CFTR stably expressed in FRT cells
Kind of experiment: YFP-H148Q iodide influx fluorescence assay in CFTR-expressing FRT cells; supported by short-circuit current in rat colonic mucosa. In kind it is cell-based.

T1 sequence (P13569 whole entry): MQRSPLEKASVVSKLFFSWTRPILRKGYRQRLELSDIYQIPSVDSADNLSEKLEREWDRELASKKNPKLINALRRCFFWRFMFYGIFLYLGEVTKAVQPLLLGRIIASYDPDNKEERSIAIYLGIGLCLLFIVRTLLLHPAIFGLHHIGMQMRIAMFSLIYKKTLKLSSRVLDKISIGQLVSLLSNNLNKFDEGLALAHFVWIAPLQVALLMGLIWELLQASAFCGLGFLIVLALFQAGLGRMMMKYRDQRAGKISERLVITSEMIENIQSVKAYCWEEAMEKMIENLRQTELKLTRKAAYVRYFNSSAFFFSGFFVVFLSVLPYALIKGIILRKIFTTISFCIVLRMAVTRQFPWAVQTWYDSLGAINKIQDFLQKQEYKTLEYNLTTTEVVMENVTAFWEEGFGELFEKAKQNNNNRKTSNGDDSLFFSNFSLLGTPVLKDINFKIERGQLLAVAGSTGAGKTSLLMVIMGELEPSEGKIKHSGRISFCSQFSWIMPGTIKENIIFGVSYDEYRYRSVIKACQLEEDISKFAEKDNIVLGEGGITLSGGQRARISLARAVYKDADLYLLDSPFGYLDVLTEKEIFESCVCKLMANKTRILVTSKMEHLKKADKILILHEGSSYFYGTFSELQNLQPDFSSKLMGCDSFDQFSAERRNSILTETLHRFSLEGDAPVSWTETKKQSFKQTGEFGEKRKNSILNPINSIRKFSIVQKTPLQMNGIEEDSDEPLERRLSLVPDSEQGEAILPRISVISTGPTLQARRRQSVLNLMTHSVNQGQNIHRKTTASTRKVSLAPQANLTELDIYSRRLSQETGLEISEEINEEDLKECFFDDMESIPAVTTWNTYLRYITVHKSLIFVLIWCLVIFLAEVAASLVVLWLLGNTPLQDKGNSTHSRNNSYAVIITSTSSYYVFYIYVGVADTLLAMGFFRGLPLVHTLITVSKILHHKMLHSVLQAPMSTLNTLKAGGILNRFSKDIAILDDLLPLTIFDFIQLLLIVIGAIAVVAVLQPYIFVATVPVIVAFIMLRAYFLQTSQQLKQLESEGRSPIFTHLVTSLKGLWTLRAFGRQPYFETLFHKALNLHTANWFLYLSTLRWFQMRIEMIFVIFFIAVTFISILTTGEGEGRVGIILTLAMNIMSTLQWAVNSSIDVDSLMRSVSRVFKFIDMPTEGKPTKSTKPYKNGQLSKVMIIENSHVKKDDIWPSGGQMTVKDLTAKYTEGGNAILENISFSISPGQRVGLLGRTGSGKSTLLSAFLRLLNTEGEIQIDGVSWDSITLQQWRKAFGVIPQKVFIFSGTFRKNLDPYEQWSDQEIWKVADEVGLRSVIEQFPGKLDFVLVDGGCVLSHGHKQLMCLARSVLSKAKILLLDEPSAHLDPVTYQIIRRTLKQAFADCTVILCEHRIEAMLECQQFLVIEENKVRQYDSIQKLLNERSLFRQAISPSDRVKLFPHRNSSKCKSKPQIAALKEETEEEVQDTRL

For `O=C(O[C@@H]1Cc2c(O)cc(O)cc2O[C@@H]1c1cc(O)c(O)c(O)c1)c1cc(O)c(O)c(O)c1` [C2, (-)–epigallocatechin-3-gallate], the IC50 is around 100 µM.
